From patent US7271190B2, “Indazole compounds as β3 adrenoceptor agonist” (Asahi Kasei Pharma Corporation, priority 2001, dated 2007)
Structures can show the parent of a compound that is named as a salt.

Columns and labels:
[1] = molecular target: T1, human β3 (Homo sapiens, UniProt P13945); assay: Human β3-agonist activities (cAMP in transfected CHO cells); format: cell-based; details: for EC50: CHO cells expressing human β3, cAMP, 30 minutes; for Emax: CHO, read-out: Intrinsic activity*
T1 construct: used as a probe to obtain the full length human β3 gene from a human genomic library; expressed in transfected cells; host or cells: CHO (Chinese hamster ovary) cells, pcDNA3 vector
T1 sequence (P13945 whole entry): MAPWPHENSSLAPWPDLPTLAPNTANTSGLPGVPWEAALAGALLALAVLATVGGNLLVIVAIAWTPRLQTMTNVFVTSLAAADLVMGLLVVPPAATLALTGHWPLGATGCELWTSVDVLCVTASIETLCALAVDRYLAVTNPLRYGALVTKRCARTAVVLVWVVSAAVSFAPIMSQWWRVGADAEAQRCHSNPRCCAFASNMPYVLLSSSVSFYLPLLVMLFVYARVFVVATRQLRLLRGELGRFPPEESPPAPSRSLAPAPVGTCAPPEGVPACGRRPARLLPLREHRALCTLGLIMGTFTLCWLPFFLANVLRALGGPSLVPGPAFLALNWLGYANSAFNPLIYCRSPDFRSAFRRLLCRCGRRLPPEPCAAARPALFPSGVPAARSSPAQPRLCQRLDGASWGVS
Method: Human β3-Agonist Activities
Human β3-agonist activities were determined using CHO (Chinese hamster ovary) cells transfected with pcDNA3 (mfd. by Invitrogen) to which human β3 gene had been inserted. Human β3 fragment was first obtained from human adipose tissue cDNA (mfd. by Clonetech) by PCR using the primer of β3 (Krief, et al., J. Clin. Invest., vol. 91, pp. 344-349 (1993)). The human β3 fragment thus obtained was used as a probe to obtain the full length human β3 gene from a human genomic library (mfd. by Clonetech). The above cells were cultured in a Ham F-12 medium supplemented with 10% fetal bovine serum, 400 μg/mL geneticin (Gibco BRL), 100 U/mL penicillin and […] streptomycin. After placing these cells (5×10^5) into a 6-well plate and culturing them for 24 hours, they were allowed to stand on a serum-free Ham F-12 medium for 2 hours. The compound was first dissolved in DMSO, repeatedly diluted by ten times with Ham F-12 supplemented with 1 mM isobutylmethyl-xanthine and 1 mM ascorbic acid to a final concentration of from 10^−5 to 10^−12 M, and then added to the cells. After the cells were cultured for 30 minutes, the medium was removed, followed by addition of 0.5 mL of 1 N NaOH. The medium was allowed to stand for 20 minutes and then 0.5 mL of 1 N acetic acid was added to the medium. The medium was stirred and then centrifuged, followed by quantitating cAMP with cAMP EIA kit (mfd. by Cayman). Isoproterenol was purchased from RBI (Research Biochemicals International).

[2] = system: ddy mice; assay: Toxicity test, oral, mice; format: in vivo; details: orally, 100 mg/kg, 6-week old male ddy mice, eight animals
Method: Each of the present compounds synthesized in Examples 1 and 2 were orally administered to 6-week old male ddy mice (CHARLES RIVER JAPAN) at 100 mg/kg. […] The other compounds, which achieved the same results, were also shown to have a low toxicity.

[3] = Relative activities (%) as compared with isoproterenol

SMILES	EC50 [1] [nM]	Emax [1, 3] [%]	animals found dead [2]	Intrinsic activity* [1, 3] [%]
Cc1n[nH]c2cc(OCCNC[C@H](O)c3ccc(Cl)c(NS(C)(=O)=O)c3)ccc12 [Example 88, (R)-N-[5-[2-[2-(3-methylindazol-6-yloxy)ethylamino]-1-hydroxyethyl]-2-chlorophenyl]methanesulfonamide]	4.7	52	–	–
Cc1c(C2CCCN(C(=O)OC(C)(C)C)C2)[nH]c2cc(OCCNC[C@H](O)c3cccc(NS(C)(=O)=O)c3)ccc12 (stereo partly drawn) [Example 75, (R)-N-[3-[2-[2-[2-(N′-t-butyloxycarbonylpiperidin-3-yl)-3-methyl-1H-indol-6-yloxy]ethylamino]-1-hydroxyethyl]phenyl]methanesulfonamide]	4.4	79	–	–
Cc1c(-c2cccnc2)[nH]c2cc(OCCNC[C@H](O)c3ccc(F)c(NS(C)(=O)=O)c3)ccc12 [Example 79, (R)-N-[2-fluoro-5-[1-hydroxy-2-[2-(3-methyl-2-pyridin-3-yl-1H-indol-6-yloxy)ethylamino]ethyl]phenyl]methanesulfonamide]	3.4	65	–	–
Cc1n[nH]c2cc(OCCNC[C@H](O)c3cccc(NS(C)(=O)=O)c3)ccc12 [Example 84, (R)-N-[3-[2-[2-(3-methylindazol-6-yloxy)ethylamino]-1-hydroxyethyl]phenyl]methanesulfonamide hydrochloride]	12	81	–	–
Cc1c(CCC(=O)N(C)C)[nH]c2cc(OCCNC[C@H](O)c3cccc(NS(C)(=O)=O)c3)ccc12 [Example 81]	2.8	77	–	–
CCOC(=O)c1[nH]c2cc(OCCNC[C@H](O)c3cccc(NS(C)(=O)=O)c3)ccc2c1C [Example 1, ethyl (R)-6-[2-[2-(3-methylsulfonylamino)phenyl-2-hydroxyethylamino]ethoxy]-3-methyl-1H-indole-2-carboxylate hydrochloride]	15	97	none of the eight animals were found to be dead	–
Cc1c(-c2ccncc2)[nH]c2cc(OCCNC[C@H](O)c3cccc(NS(C)(=O)=O)c3)ccc12 [Example 74, (R)-N-[3-[1-hydroxy-2-[2-(3-methyl-2-pyridin-4-yl-1H-indol-6-yloxy)ethylamino]ethyl]phenyl]methanesulfonamide]	3.9	71	–	–
CCOC(=O)CCc1c(C)[nH]c2cc(OCCNC[C@H](O)c3cccc(NS(C)(=O)=O)c3)ccc12 [Example 13, ethyl (R)-3-[6-[2-[2-(3-methylsulfonylamino)phenyl-2-hydroxyethylamino]ethoxy]-2-methyl-1H-indol-3-yl]propionate]	23	38	–	–
CCOC(=O)CCc1[nH]c2cc(OCCNC[C@H](O)c3ccc(F)c(NS(C)(=O)=O)c3)ccc2c1C [Example 80, ethyl (R)-3-[6-[2-[2-(4-fluoro-3-methylsulfonylaminophenyl)-2-hydroxyethylamino]ethoxy]-3-methyl-1H-indol-2-yl]propionate]	2.8	63	–	–
CCOC(=O)CCc1c(CC)[nH]c2cc(OCCNC[C@H](O)c3cccc(NS(C)(=O)=O)c3)ccc12 [Example 20]	32	55	–	–
COc1n[nH]c2cc(OCCNC[C@H](O)c3cccc(NS(C)(=O)=O)c3)ccc12 [Example 86, (R)-N-[3-[2-[2-(3-methoxyindazol-6-yloxy)ethylamino]-1-hydroxyethyl]phenyl]methanesulfonamide]	26	64	–	–
CCc1c(-c2cccnc2)[nH]c2cc(OCCNC[C@H](O)c3cccc(NS(C)(=O)=O)c3)ccc12 [Example 73, (R)-N-[3-[2-[2-(3-ethyl-2-pyridin-3-yl-1H-indol-6-yloxy)ethylamino]-1-hydroxyethyl]phenyl]methanesulfonamide]	3.5	75	–	–
CNS(=O)(=O)c1cc([C@@H](O)CNCCOc2ccc3c(C)n[nH]c3c2)ccc1O [Example 89, (R)-N-methyl-[5-[2-[2-(3-methylindazol-6-yloxy)ethylamino]-1-hydroxyethyl]-2-hydroxyl]benzenesulfonamide]	11	80	–	–
Cc1c(C(=O)O)[nH]c2cc(OCCNC[C@H](O)c3cccc(NS(C)(=O)=O)c3)ccc12 [Example 2, (R)-6-[2-[2-(3-methylsulfonylamino)phenyl-2-hydroxyethylamino]ethoxy]-3-methyl-1H-indole-2-carboxylic acid]	18	124	none of the eight animals were found to be dead	–
Cc1c(-c2cccnc2)[nH]c2cc(OCCNC[C@H](O)c3cccc(NS(C)(=O)=O)c3)ccc12 [Example 72, (R)-N-[3-[1-hydroxy-2-[2-(3-methyl-2-pyridin-3-yl-1H-indol-6-yloxy)ethylamino]ethyl]phenyl]methanesulfonamide]	2.8	105	–	–
Cc1c(C2CCCNC2)[nH]c2cc(OC[C@@H](O)NCCc3cccc(NS(C)(=O)=O)c3)ccc12 (stereo partly drawn) [Example 76, (R)-N-[3-[2-[1-hydroxy-2-(3-methyl-2-piperidin-3-yl-1H-indol-6-yloxy)ethylamino]ethyl]phenyl]methanesulfonamide]	21	–	–	76
CCOC(=O)CCc1[nH]c2cc(OCCNC[C@H](O)c3cccc(NS(C)(=O)=O)c3)ccc2c1C [Example 82, ethyl (R)-3-[3-methyl-6-[2-[2-(3-methylsulfonylaminophenyl)-2-hydroxyethylamino]ethoxy]-1H-indol-2-yl]propionate]	1.4	81	–	–
